Source: US20240173232A1, “COSMETIC COMPOSITION COMPRISING CARNITINE-SALICYLATE AS ACTIVE INGREDIENT” (LG HOUSEHOLD & HEALTH CARE LTD., priority 2021, published 2024)

Assays:
pig back skin = assay: In vitro exfoliation efficacy (detached keratinocytes from pig back skin); settings: 16 hours, n=5
Description: The pig back skin surface was washed with phosphate buffer saline (PBS) and then cut to a certain size. Thereafter, the stratum corneum of the pig skin was exposed and placed on a 96-well plate, 100 μl of each sample was applied, and the 96-well plate was left in a constant temperature and humidity chamber for 16 hours. Thereafter, the supernatant of each sample was mixed well with a trypan blue solution in the 96-well plate to measure the number of detached keratinocytes. In order to verify the suitability of the relative dead skin cell control efficacy evaluation method used in this study, the following method was used. […] After treating the pig skin with the sample by the method described above, the number of detached keratinocytes was counted, and the number of detached keratinocytes in PHA (DL-gluconolactone) at pH 4.0 was set to 100% to evaluate the relative exfoliation efficacy. All evaluations were made at n=5 to secure reliability through repeated results.

Raw 264.7 cells [1] = assay: MTT cytotoxicity assay, Raw 264.7 cells; settings: 24 hours
Description: (§1) The cytotoxicity of carnitine-salicylate (CA-SA) was evaluated by 3-(4,5-dimethythiazol-2-yl)-2,5-diphenyl tetrazolium bromide (MTT) assay. […] After removing the medium and adding each sample to a medium without FBS and incubating for 24 hours, the medium was removed, an MTT solution was added at a concentration of […], and reacted at 37° C. for 3 hours. The unreacted MTT solution was removed, and 100 μl of DMSO was added to dissolve the formed reaction product, and then absorbance was measured at 540 nm to confirm the cytotoxicity.
(§2) The cytotoxicity of salicylate, carnitine, and carnitine-salicylate (CA-SA) was evaluated by treating Raw 264.7 cells, which are rat macrophages, and human fibroblasts with the material. As a Raw 264.7 cell is a representative cell used to measure NO inhibitory efficacy in anti-inflammatory efficacy evaluations, its cytotoxicity was evaluated, and cytotoxicity with respect to fibroblasts was evaluated in order to confirm the toxicity that may be induced when the material is included in cosmetics and be repeatedly applied to the skin.

[2] = system: fibroblasts obtained from human skin tissue; assay: MTT cytotoxicity assay, human fibroblasts; settings: 24 hours
Description: as §1, §2

Raw 264.7 cells [3] = assay: NO production inhibition in LPS-treated Raw 264.7 cells (GRIESS method); format: cell-based, rat; settings: LPS 500 ng/ml
Description: The anti-inflammatory effect of carnitine-salicylate (CA-SA) was confirmed experimentally.
In order to evaluate the efficacy of relieving inflammation caused by external stimuli in vitro, an experiment was performed by the GRIESS method using Raw 264.7 cells (ATCC number: CRL-2788), which are rat macrophage cell line, to evaluate the inhibition of NO production after treatment with lipopolysaccharide (LPS, Sigma Aldrich, USA). […] After removing the medium and performing starvation with a serum-free medium for 12 hours, the test material was treated at 0.1 to 100 ppm for 30 minutes, and then LPS was added at a concentration of 500 ng/ml and the cells were further cultured for 18 hours. After culturing, the supernatant was taken and transferred to a 96-well plate, GRIESS reagent was added and reacted at room temperature for 15 minutes, and absorbance at 540 nm was measured using an ELISA reader.

[4] = 2% (mixture 1% + 1%), pH 5.5, relative to 10% gluconolactone pH 4.0 = 100%

For `O=C1O[C@H](CO)[C@@H](O)[C@H](O)[C@H]1O` (racemic) [Gloconolactone, DL-gluconolactone], the “Exfoliation rate (%)” value (pig back skin; 10%, pH 4, positive control set to 100%) was 100.0% and the “Exfoliation rate (%)” value (pig back skin; 10%, pH 6, relative to gluconolactone pH 4.0 = 100%) was 32.0%.
For `O=C(O)c1ccccc1O` [SA, salicylate], the cell viability (Raw 264.7 cells [1]; 50 ppm) was 96.16%, the cell viability (Raw 264.7 cells [1]; 100 ppm) was 79.74% and the “Exfoliation rate (%)” value (pig back skin; [4]) was 19.2%. The cell viability ([2]; 50 ppm) was 94.83%, the cell viability ([2]; 100 ppm) was 85.36% and the NO inhibition rate (Raw 264.7 cells [3]; 10 ppm (mixture 10 ppm + 10 ppm), 18 hours) was 16.4%.
In the case of `CC(=O)O.CNC(=N)NCCC[C@H](N)C(=O)O` [L-MMMA, NG-monomethyl-L-arginine acetate], the NO inhibition rate (Raw 264.7 cells [3]; positive control) is reported as 62.2%.
`C[N+](C)(C)CC(O)CC(=O)[O-]` (centres unmarked) [CA, 4-trimethylamino-3-hydroxybutyric acid] was tested, and the “Exfoliation rate (%)” value (pig back skin; [4]) was 55.2% and the inhibition at 10 ppm (Raw 264.7 cells [3]; Mus musculus, RAW264.7, 10 ppm (mixture 10 ppm + 10 ppm), 18 hours, read-out: NO inhibition rate) was 0%.
